Laboratory results published in ChEMBL document CHEMBL1201861, “Genomics of Drug Sensitity in Cancer screening data, Wellcome Trust Sanger Institute”.
pIC50: −log10 of the molar value.

What was measured:
Experiment in all cases: cells
NB17 = format: functional, cell-based, Homo sapiens; settings: Homo sapiens, NB17;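 also: growth inhibition of NB17 cells, read out with a cell viability assay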
Description: SANGER: Inhibition of human NB17 cell growth in a cell viability assay.

COLO-684 = format: functional, cell-based, Homo sapiens; settings: Homo sapiens, COLO-684
Description: SANGER: Inhibition of human COLO-684 cell growth in a cell viability assay.

EW-1 = format: functional, cell-based, Homo sapiens; settings: Homo sapiens, EW-1
Description: SANGER: Inhibition of human EW-1 cell growth in a cell viability assay.

KNS-42 = format: functional, cell-based, Homo sapiens; settings: Homo sapiens, KNS-42;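 also: growth inhibition of KNS-42 cells, read out with a cell viability assay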
Description: SANGER: Inhibition of human KNS-42 cell growth in a cell viability assay.

EOL1 = format: functional, cell-based, Homo sapiens; settings: Homo sapiens, EOL1;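 also: growth inhibition of EoL-1 cells, read out by a cell viability assay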
Description: SANGER: Inhibition of human EoL-1-cell cell growth in a cell viability assay.

8-MG-BA = format: functional, cell-based, Homo sapiens; settings: Homo sapiens, 8-MG-BA;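 also: growth inhibition of 8-MG-BA cells, read out with a cell viability assay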
Description: SANGER: Inhibition of human 8-MG-BA cell growth in a cell viability assay.

MZ7-mel = format: functional, cell-based, Homo sapiens; settings: Homo sapiens, MZ7-mel;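 also: growth inhibition of human MZ7-mel cells, measured by a cell viability assay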
Description: SANGER: Inhibition of human MZ7-mel cell growth in a cell viability assay.

KS-1 = format: functional, cell-based, Homo sapiens; settings: Homo sapiens, KS-1;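 also: growth inhibition of KS-1 cells, read out with a cell viability assay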
Description: SANGER: Inhibition of human KS-1 cell growth in a cell viability assay.

HCE-4 = format: functional, cell-based, Homo sapiens; settings: Homo sapiens, HCE-4;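 also: cell viability assay measuring inhibition of growth in the human HCE-4 cell line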
Description: SANGER: Inhibition of human HCE-4 cell growth in a cell viability assay.

COLO-668 = format: functional, cell-based, Homo sapiens; settings: Homo sapiens, COLO-668
Description: SANGER: Inhibition of human COLO-668 cell growth in a cell viability assay.

EW-16 = format: functional, cell-based, Homo sapiens; settings: Homo sapiens, EW-16;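 also: growth inhibition of human EW-16 cells, read out as cell viability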
Description: SANGER: Inhibition of human EW-16 cell growth in a cell viability assay.

CGTH-W-1 = format: functional, cell-based, Homo sapiens; settings: Homo sapiens, CGTH-W-1;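 also: growth inhibition of human CGTH-W-1 cells measured by cell viability assay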
Description: SANGER: Inhibition of human CGTH-W-1 cell growth in a cell viability assay.

LAN-6 = format: functional, cell-based, Homo sapiens; settings: Homo sapiens, LAN-6;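 also: growth inhibition of LAN-6 cells, determined with a cell viability assay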
Description: SANGER: Inhibition of human LAN-6 cell growth in a cell viability assay.

EW-11 = format: functional, cell-based, Homo sapiens; settings: Homo sapiens, EW-11;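 also: growth inhibition of human EW-11 cells, measured with a cell viability assay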
Description: SANGER: Inhibition of human EW-11 cell growth in a cell viability assay.

HH = format: functional, cell-based, Homo sapiens; settings: Homo sapiens, HH
Description: SANGER: Inhibition of human HH cell growth in a cell viability assay.

DB = format: functional, cell-based, Homo sapiens; settings: Homo sapiens, DB
Description: SANGER: Inhibition of human DB cell growth in a cell viability assay.

BV-173 = format: functional, cell-based, Homo sapiens; settings: Homo sapiens, BV-173
Description: SANGER: Inhibition of human BV-173 cell growth in a cell viability assay.

GAK = format: functional, cell-based, Homo sapiens; settings: Homo sapiens, GAK;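 also: cell growth inhibition read out by a cell viability assay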
Description: SANGER: Inhibition of human GAK cell growth in a cell viability assay.

TE-5 = format: functional, cell-based, Homo sapiens; settings: Homo sapiens, TE-5;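 also: inhibition of cell growth, read out by a cell viability assay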
Description: SANGER: Inhibition of human TE-5 cell growth in a cell viability assay.

COLO-800 = format: functional, cell-based, Homo sapiens; settings: Homo sapiens, COLO-800;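 also: growth inhibition of COLO-800 cells, read out with a cell viability assay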
Description: SANGER: Inhibition of human COLO-800 cell growth in a cell viability assay.

no-11 = format: functional, cell-based, Homo sapiens; settings: Homo sapiens;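 also: growth inhibition of human NO-11 cells, read out with a cell viability assay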
Description: SANGER: Inhibition of human no-11 cell growth in a cell viability assay.

LB771-HNC = format: functional, cell-based, Homo sapiens; settings: Homo sapiens, LB771-HNC;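 also: growth inhibition of LB771-HNC human cells, read out with a cell viability assay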
Description: SANGER: Inhibition of human LB771-HNC cell growth in a cell viability assay.

JAR = format: functional, cell-based, Homo sapiens; settings: Homo sapiens, JAR;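 also: growth inhibition of human JAR cells determined with a cell viability assay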
Description: SANGER: Inhibition of human JAR cell growth in a cell viability assay.

HDLM-2 = format: functional, cell-based, Homo sapiens; settings: Homo sapiens, HDLM-2;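 also: cell viability assay measuring suppression of HDLM-2 proliferation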
Description: SANGER: Inhibition of human HDLM-2 cell growth in a cell viability assay.

KM-H2 = format: functional, cell-based, Homo sapiens; settings: Homo sapiens, KM-H2;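 also: growth inhibition of KM-H2 cells, read out by a cell viability assay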
Description: SANGER: Inhibition of human KM-H2 cell growth in a cell viability assay.

Calu-6 = format: functional, cell-based, Homo sapiens; settings: Homo sapiens, Calu-6;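 also: growth of human Calu-6 cells, read out by a cell viability assay, IC50 marking inhibition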
Description: SANGER: Inhibition of human Calu-6 cell growth in a cell viability assay.

COLO-320-HSR = format: functional, cell-based, Homo sapiens; settings: Homo sapiens, COLO-320-HSR;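 also: growth inhibition of COLO-320-HSR cells, determined with a cell viability assay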
Description: SANGER: Inhibition of human COLO-320-HSR cell growth in a cell viability assay.

TE-12 = format: functional, cell-based, Homo sapiens; settings: Homo sapiens, TE-12;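 also: growth inhibition of TE-12 cells, read out by a cell viability assay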
Description: SANGER: Inhibition of human TE-12 cell growth in a cell viability assay.

ML-2 = format: functional, cell-based, Homo sapiens; settings: Homo sapiens, ML-2;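 also: growth inhibition of ML-2 cells, measured with a cell viability readout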
Description: SANGER: Inhibition of human ML-2 cell growth in a cell viability assay.

BB30-HNC = format: functional, cell-based, Homo sapiens; settings: Homo sapiens, BB30-HNC;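 also: growth inhibition of the cultured cell line, read out by a cell viability assay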
Description: SANGER: Inhibition of human BB30-HNC cell growth in a cell viability assay.

HL-60 = format: functional, cell-based, Homo sapiens; settings: Homo sapiens, HL-60;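 also: growth inhibition of human HL-60 cells, read out with a cell viability assay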
Description: SANGER: Inhibition of human HL-60 cell growth in a cell viability assay.

TE-8 = format: functional, cell-based, Homo sapiens; settings: Homo sapiens, TE-8;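 also: growth inhibition of TE-8 cells, measured with a cell viability readout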
Description: SANGER: Inhibition of human TE-8 cell growth in a cell viability assay.

COLO-829 = format: functional, cell-based, Homo sapiens; settings: Homo sapiens, COLO-829
Description: SANGER: Inhibition of human COLO-829 cell growth in a cell viability assay.

ES8 = format: functional, cell-based, Homo sapiens; settings: Homo sapiens, ES8;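 also: growth inhibition of human ES8 cells, read out with a cell viability assay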
Description: SANGER: Inhibition of human ES8 cell growth in a cell viability assay.

KURAMOCHI = format: functional, cell-based, Homo sapiens; settings: Homo sapiens, KURAMOCHI;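 also: growth inhibition of KURAMOCHI cells, read out with a cell viability assay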
Description: SANGER: Inhibition of human KURAMOCHI cell growth in a cell viability assay.

NCI-H720 = format: functional, cell-based, Homo sapiens; settings: Homo sapiens, NCI-H720;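 also: growth inhibition of human NCI-H720 cells determined by a cell viability assay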
Description: SANGER: Inhibition of human NCI-H720 cell growth in a cell viability assay.

SHP77 = format: functional, cell-based, Homo sapiens, SHP-77; settings: Homo sapiens, SHP77;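 also: growth inhibition of human SHP-77 cells measured by a cell viability assay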
Description: SANGER: Inhibition of human SHP-77 cell growth in a cell viability assay.

A253 cell line = format: functional, cell-based, Homo sapiens; settings: Homo sapiens, A253;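 also: growth inhibition of A253 cells, read out with a cell viability assay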
Description: SANGER: Inhibition of human A253 cell growth in a cell viability assay.

NCI-H1395 = format: functional, cell-based, Homo sapiens; settings: Homo sapiens, NCI-H1395;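 also: cell viability assay read-out quantifying reduced proliferation of human NCI-H1395 cells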
Description: SANGER: Inhibition of human NCI-H1395 cell growth in a cell viability assay.

SW982 = format: functional, cell-based, Homo sapiens; settings: Homo sapiens, SW982;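 also: growth inhibition of SW982 cells, read out with a cell viability assay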
Description: SANGER: Inhibition of human SW982 cell growth in a cell viability assay.

A388 = format: functional, cell-based, Homo sapiens; settings: Homo sapiens, A388;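 also: growth inhibition of human A388 cells, read out with a cell viability assay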
Description: SANGER: Inhibition of human A388 cell growth in a cell viability assay.

D283 Med = format: functional, cell-based, Homo sapiens; settings: Homo sapiens, D283 Med
Description: SANGER: Inhibition of human D-283MED cell growth in a cell viability assay.

ALL-PO = format: functional, cell-based, Homo sapiens; settings: Homo sapiens, ALL-PO;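 also: growth inhibition of ALL-PO cells, read out by a cell viability assay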
Description: SANGER: Inhibition of human ALL-PO cell growth in a cell viability assay.

LOX IMVI = format: functional, cell-based, Homo sapiens; settings: Homo sapiens, LOX IMVI
Description: SANGER: Inhibition of human LOXIMVI cell growth in a cell viability assay.

LS-123 = format: functional, cell-based, Homo sapiens; settings: Homo sapiens, LS-123
Description: SANGER: Inhibition of human LS-123 cell growth in a cell viability assay.

TE-9 = format: functional, cell-based, Homo sapiens; settings: Homo sapiens, TE-9;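 also: cell growth inhibition, measured with a cell viability readout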
Description: SANGER: Inhibition of human TE-9 cell growth in a cell viability assay.

COc1cc(-c2nn([C@H]3CC[C@H](N4CCN(C(C)=O)CC4)CC3)c3ncnc(N)c23)ccc1NC(=O)c1cc2ccccc2n1C
pIC50 (NB17): < 5.29 | pIC50 (COLO-684): < 5.29 | pIC50 (EW-1): < 5.29 | pIC50 (KNS-42): < 5.29 | pIC50 (EOL1): 5.34 | pIC50 (8-MG-BA): 5.34 | pIC50 (MZ7-mel): < 5.29 | pIC50 (KS-1): 5.99 | pIC50 (HCE-4): 5.63 | pIC50 (COLO-668): < 5.29 | pIC50 (EW-16): 5.44 | pIC50 (CGTH-W-1): < 5.29 | pIC50 (LAN-6): < 5.29 | pIC50 (EW-11): < 5.29 | pIC50 (HH): < 5.29 | pIC50 (DB): < 5.29 | pIC50 (BV-173): 6.46 | pIC50 (GAK): < 5.29 | pIC50 (TE-5): < 5.29 | pIC50 (COLO-800): < 5.29 | pIC50 (no-11): < 5.29 | pIC50 (LB771-HNC): < 5.29 | pIC50 (JAR): < 5.29 | pIC50 (HDLM-2): < 5.29 | pIC50 (KM-H2): < 5.29 | pIC50 (Calu-6): < 5.29 | pIC50 (COLO-320-HSR): < 5.29 | pIC50 (TE-12): 6.39 | pIC50 (ML-2): < 5.29 | pIC50 (BB30-HNC): 6.06 | pIC50 (HL-60): < 5.29 | pIC50 (TE-8): 6.62 | pIC50 (COLO-829): < 5.29 | pIC50 (ES8): < 5.29 | pIC50 (KURAMOCHI): 6.05 | pIC50 (NCI-H720): < 5.29 | pIC50 (SHP77): < 5.29 | pIC50 (A253 cell line): < 5.29 | pIC50 (NCI-H1395): < 5.29 | pIC50 (SW982): 6.41 | pIC50 (A388): 5.36 | pIC50 (D283 Med): < 5.29 | pIC50 (ALL-PO): < 5.29 | pIC50 (LOX IMVI): < 5.29 | pIC50 (LS-123): < 5.29 | pIC50 (TE-9): < 5.29

OCCCNc1cc(-c2ccnc(Nc3cccc(Cl)c3)n2)ccn1
pIC50 (NB17): 7.05 | pIC50 (COLO-684): 7.02 | pIC50 (EW-1): 7.34 | pIC50 (KNS-42): 6.89 | pIC50 (EOL1): < 6.59 | pIC50 (8-MG-BA): 7.25 | pIC50 (MZ7-mel): < 6.59 | pIC50 (KS-1): 7.86 | pIC50 (HCE-4): < 6.59 | pIC50 (COLO-668): 6.63 | pIC50 (EW-16): 7.48 | pIC50 (CGTH-W-1): 7.10 | pIC50 (LAN-6): 6.83 | pIC50 (EW-11): < 6.59 | pIC50 (HH): 7.15 | pIC50 (DB): 6.86 | pIC50 (BV-173): 6.84 | pIC50 (GAK): < 6.59 | pIC50 (TE-5): 7.04 | pIC50 (COLO-800): < 6.59 | pIC50 (no-11): 7.53 | pIC50 (LB771-HNC): 6.79 | pIC50 (JAR): 7.09 | pIC50 (HDLM-2): < 6.59 | pIC50 (KM-H2): < 6.59 | pIC50 (Calu-6): < 6.59 | pIC50 (COLO-320-HSR): 7.08 | pIC50 (TE-12): 7.31 | pIC50 (ML-2): < 6.59 | pIC50 (BB30-HNC): 7.28 | pIC50 (HL-60): < 6.59 | pIC50 (TE-8): 7.62 | pIC50 (COLO-829): < 6.59 | pIC50 (ES8): < 6.59 | pIC50 (KURAMOCHI): 7.22 | pIC50 (NCI-H720): < 6.59 | pIC50 (SHP77): 6.81 | pIC50 (A253 cell line): 7.19 | pIC50 (NCI-H1395): < 6.59 | pIC50 (SW982): 7.60 | pIC50 (A388): 7.32 | pIC50 (D283 Med): < 6.59 | pIC50 (ALL-PO): 7.10 | pIC50 (LOX IMVI): 6.69 | pIC50 (LS-123): 7.03 | pIC50 (TE-9): < 6.59
